Assays:
[1] = system: human K562 chronic myelogenous leukemia (CML) xenograft; assay: K562 CML xenograft model; assay type: in vivo, SCID mice; settings: 5-day on, two-day off for two cycles; female SCID mice
Experimental: The objective of the second study was to evaluate antitumor activities of novel multiple-kinase inhibitor NTW-3475 in human K562 chronic myelogenous leukemia (CML) xenograft model in female SCID mice.
Four to six animals were randomly assigned to study groups. Each animal was weighed, and then injected subcutaneously in the left and right flank area with 0.1 ml of 8.0×10^7 K562 cells per mL.
Each test or control animal was on a 5-day on, two-day off for two cycles treatment schedule. Tumor growth was measured with a digital hand held caliper twice weekly (once tumor emerges) prior to the first dosing and then two to three times weekly until euthanized. Animals were weighed prior to tumor cell injection, prior to dosing, two to three times weekly with tumor growth measurements, and prior to euthanasia.
FIGS. 34 and 35 depict the results of various concentrations of NTW-3456 on a scid mouse/xenograft model of CML using K562 cells.

[2] = target: ACK1(h) (Homo sapiens, UniProt Q07912); assay: Kinase panel activity; assay type: biochemical; settings: 0.1 μM, ATP Km
Experimental: (§1) The effect of NTW-3475 on kinase activity was tested for a wide range of kinases and is shown in Table 2: Summary Sheet, Activity % ATP Concentration: Km

[3] = target: PKCη(h) (Homo sapiens, UniProt P24723); assay: Kinase panel activity; assay type: biochemical; settings: 0.1 μM, ATP Km
Sequence of PKCη(h) (P24723 whole entry): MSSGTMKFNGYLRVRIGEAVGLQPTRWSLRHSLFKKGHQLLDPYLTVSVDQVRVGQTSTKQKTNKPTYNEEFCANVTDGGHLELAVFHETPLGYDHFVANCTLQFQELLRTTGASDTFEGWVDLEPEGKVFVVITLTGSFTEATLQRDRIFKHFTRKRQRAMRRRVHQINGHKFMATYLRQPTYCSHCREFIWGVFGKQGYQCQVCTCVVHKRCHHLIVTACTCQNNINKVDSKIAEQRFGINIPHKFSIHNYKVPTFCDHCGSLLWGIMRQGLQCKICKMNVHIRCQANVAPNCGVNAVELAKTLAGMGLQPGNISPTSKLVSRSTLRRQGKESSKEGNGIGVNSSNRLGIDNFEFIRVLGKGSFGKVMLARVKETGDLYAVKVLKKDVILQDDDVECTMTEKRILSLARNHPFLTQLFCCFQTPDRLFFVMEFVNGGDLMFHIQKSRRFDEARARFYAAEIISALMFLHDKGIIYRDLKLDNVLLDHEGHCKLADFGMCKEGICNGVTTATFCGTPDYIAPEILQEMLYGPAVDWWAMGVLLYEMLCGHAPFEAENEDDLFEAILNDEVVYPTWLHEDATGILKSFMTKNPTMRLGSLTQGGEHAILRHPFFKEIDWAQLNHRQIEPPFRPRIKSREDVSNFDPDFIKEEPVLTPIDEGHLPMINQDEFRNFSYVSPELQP
Experimental: as §1

[4] = target: PKCβ1(h) (Homo sapiens, UniProt P05771); assay: Kinase panel activity; assay type: biochemical; settings: 0.1 μM, ATP Km
Experimental: as §1

[5] = target: CDK6/cyclinD3(h) (Homo sapiens, UniProt Q00534); assay: Kinase panel activity; assay type: biochemical; settings: 0.1 μM, ATP Km
Experimental: as §1

[6] = target: PhKγ2(h) (Homo sapiens, UniProt P15735); assay: Kinase panel activity; assay type: biochemical; settings: 0.1 μM, ATP Km
Sequence of PhKγ2(h) (P15735 whole entry): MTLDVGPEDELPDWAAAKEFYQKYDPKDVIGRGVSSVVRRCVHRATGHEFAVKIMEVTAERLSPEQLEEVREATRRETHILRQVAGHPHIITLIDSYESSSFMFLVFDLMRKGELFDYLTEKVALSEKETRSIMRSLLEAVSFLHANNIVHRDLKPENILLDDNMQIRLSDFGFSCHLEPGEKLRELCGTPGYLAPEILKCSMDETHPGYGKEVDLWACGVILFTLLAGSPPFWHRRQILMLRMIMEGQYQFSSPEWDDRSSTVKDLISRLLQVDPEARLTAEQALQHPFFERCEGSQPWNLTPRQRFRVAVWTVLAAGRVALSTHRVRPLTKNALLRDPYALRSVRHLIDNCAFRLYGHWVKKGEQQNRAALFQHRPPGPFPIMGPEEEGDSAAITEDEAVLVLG
Experimental: as §1

[7] = target: T1, EphB3(h) (Homo sapiens, UniProt P54753); assay: Kinase panel activity; assay type: biochemical; settings: 0.1 μM, ATP Km
T1 construct: purchased Millipore (KinaseProfiler service)
Experimental: as §1

[8] = target: mTOR(h) (Homo sapiens, UniProt P42345); assay: Kinase panel activity; assay type: biochemical; settings: 0.1 μM, ATP Km
Experimental: as §1

[9] = target: PKCδ(h) (Homo sapiens, UniProt Q05655); assay: Kinase panel activity; assay type: biochemical; settings: 0.1 μM, ATP Km
Sequence of PKCδ(h) (Q05655 whole entry): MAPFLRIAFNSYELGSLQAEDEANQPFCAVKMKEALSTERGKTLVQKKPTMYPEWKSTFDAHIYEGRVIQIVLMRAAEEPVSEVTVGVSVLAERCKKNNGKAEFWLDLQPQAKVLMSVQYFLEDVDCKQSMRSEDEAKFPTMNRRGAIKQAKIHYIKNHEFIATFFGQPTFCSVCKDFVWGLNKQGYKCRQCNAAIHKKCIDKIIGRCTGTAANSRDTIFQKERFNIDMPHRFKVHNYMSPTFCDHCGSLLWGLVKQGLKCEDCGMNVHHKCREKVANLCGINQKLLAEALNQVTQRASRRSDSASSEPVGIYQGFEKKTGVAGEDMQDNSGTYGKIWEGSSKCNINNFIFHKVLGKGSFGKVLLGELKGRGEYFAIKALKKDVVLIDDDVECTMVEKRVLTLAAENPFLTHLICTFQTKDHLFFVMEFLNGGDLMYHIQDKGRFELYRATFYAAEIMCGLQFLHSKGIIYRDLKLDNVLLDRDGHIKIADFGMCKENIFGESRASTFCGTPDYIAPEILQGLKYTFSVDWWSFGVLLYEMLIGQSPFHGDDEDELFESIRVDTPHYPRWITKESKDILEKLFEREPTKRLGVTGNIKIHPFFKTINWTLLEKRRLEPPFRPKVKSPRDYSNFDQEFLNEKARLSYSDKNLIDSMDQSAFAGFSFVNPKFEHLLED
Experimental: as §1

[10] = target: PKBγ(h) (Homo sapiens, UniProt Q9Y243); assay: Kinase panel activity; assay type: biochemical; settings: 0.1 μM, ATP Km
Experimental: as §1

[11] = target: T2, TGFBR1(h) (Homo sapiens, UniProt P36897); assay: Kinase panel activity; assay type: biochemical; settings: 0.1 μM, ATP Km
T2 construct: purchased Millipore (KinaseProfiler service)
Experimental: as §1

[12] = target: T3, EphB2(h) (Homo sapiens, UniProt P29323); assay: Kinase panel activity; assay type: biochemical; settings: 0.1 μM, ATP Km
T3 construct: purchased Millipore (KinaseProfiler service)
Experimental: as §1

[13] = target: NEK3(h) (Homo sapiens, UniProt P51956); assay: Kinase panel activity; assay type: biochemical; settings: 0.1 μM, ATP Km
Experimental: as §1

[14] = target: Lck(h) activated (Homo sapiens, UniProt P06239); assay: Kinase panel activity; assay type: biochemical; settings: 0.1 μM, ATP Km
Experimental: as §1

[15] = target: IGF-1R(h), activated (Homo sapiens, UniProt P08069); assay: Kinase panel activity; assay type: biochemical; settings: 0.1 μM, ATP Km
Experimental: as §1

[16] = target: Ab1(H396P)(h) (Homo sapiens, UniProt P00519, H396P); assay: Kinase panel activity; assay type: biochemical; settings: 0.1 μM, ATP Km
Experimental: as §1

[17] = target: PKCγ(h) (Homo sapiens, UniProt P05129); assay: Kinase panel activity; assay type: biochemical; settings: 0.1 μM, ATP Km
Experimental: as §1

[18] = target: T4, Ret(V804L)(h) (Homo sapiens, UniProt P07949, V804L); assay: Kinase panel activity; assay type: biochemical; settings: 0.1 μM, ATP Km
T4 construct: purchased Millipore (KinaseProfiler service)
T4 sequence (P07949 29-1114 V804L): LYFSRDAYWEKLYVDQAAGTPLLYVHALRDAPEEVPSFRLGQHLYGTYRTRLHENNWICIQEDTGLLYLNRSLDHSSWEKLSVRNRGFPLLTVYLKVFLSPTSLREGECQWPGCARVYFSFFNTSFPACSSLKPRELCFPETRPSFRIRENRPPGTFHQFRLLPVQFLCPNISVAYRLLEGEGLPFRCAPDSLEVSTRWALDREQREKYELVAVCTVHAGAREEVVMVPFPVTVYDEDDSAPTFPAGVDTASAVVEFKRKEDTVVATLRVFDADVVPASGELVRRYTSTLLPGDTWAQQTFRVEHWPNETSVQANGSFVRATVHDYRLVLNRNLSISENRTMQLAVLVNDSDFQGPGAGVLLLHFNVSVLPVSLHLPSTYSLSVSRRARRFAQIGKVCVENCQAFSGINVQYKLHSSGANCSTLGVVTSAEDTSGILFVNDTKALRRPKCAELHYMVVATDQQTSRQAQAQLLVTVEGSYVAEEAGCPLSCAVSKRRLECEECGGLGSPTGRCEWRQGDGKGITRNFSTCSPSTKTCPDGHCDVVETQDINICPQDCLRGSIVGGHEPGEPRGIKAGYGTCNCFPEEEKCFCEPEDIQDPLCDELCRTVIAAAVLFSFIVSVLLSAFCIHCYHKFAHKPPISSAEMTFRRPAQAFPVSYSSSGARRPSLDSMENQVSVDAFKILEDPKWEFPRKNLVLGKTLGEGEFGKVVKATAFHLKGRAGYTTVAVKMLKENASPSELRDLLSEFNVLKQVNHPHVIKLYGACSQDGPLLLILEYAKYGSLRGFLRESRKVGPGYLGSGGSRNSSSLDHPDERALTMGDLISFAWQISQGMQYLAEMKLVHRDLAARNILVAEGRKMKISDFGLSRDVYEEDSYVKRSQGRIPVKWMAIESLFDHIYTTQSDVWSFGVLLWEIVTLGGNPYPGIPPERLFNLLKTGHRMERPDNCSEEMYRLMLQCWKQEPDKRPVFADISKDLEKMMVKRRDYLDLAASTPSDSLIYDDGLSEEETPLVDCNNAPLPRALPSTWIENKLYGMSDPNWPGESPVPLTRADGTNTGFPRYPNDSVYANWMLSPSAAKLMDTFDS
Experimental: as §1

[19] = target: T5, EGFR(L858R)(h) (Homo sapiens, UniProt P00533, L858R); assay: Kinase panel activity; assay type: biochemical; settings: 0.1 μM, ATP Km
T5 construct: purchased Millipore (KinaseProfiler service)
Experimental: as §1

[20] = target: ASK1(h) (Homo sapiens, UniProt Q99683); assay: Kinase panel activity; assay type: biochemical; settings: 0.1 μM, ATP Km
Experimental: as §1

[21] = target: PDGFRα(h) (Homo sapiens, UniProt P16234); assay: Kinase panel activity; assay type: biochemical; settings: 0.1 μM, ATP Km
Experimental: as §1

[22] = target: T6, EphA4(h) (Homo sapiens, UniProt P54764); assay: Kinase panel activity; assay type: biochemical; settings: 0.1 μM, ATP Km
T6 construct: purchased Millipore (KinaseProfiler service)
T6 sequence (P54764 20-986): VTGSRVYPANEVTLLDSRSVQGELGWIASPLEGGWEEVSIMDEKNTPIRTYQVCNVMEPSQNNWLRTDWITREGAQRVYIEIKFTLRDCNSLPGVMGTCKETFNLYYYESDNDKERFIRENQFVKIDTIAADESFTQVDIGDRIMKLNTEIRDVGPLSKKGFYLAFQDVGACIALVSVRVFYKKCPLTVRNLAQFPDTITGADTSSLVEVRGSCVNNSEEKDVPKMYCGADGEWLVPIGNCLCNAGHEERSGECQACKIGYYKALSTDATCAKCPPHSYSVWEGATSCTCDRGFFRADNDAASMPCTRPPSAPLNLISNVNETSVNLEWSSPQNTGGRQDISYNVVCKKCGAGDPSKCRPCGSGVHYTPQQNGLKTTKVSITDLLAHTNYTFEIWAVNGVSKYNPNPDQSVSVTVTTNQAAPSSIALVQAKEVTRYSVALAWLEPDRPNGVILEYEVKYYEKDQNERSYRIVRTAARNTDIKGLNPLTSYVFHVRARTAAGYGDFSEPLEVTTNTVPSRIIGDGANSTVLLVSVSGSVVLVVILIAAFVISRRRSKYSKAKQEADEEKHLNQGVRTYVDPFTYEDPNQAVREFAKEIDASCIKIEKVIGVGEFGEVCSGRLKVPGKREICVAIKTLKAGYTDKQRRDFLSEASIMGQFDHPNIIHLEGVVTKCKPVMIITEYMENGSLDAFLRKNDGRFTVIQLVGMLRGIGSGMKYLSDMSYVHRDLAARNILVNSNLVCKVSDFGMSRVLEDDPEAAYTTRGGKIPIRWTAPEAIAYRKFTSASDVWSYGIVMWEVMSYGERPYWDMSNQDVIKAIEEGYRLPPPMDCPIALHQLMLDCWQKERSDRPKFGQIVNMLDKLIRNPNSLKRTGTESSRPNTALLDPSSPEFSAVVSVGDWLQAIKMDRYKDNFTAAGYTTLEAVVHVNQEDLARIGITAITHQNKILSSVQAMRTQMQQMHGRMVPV
Experimental: as §1

[23] = target: T7, TLK2(h) (Homo sapiens, UniProt Q86UE8); assay: Kinase panel activity; assay type: biochemical; settings: 0.1 μM, ATP Km
T7 construct: purchased Millipore (KinaseProfiler service)
Experimental: as §1

[24] = target: ZIPK(h) (Homo sapiens, UniProt O43293); assay: Kinase panel activity; assay type: biochemical; settings: 0.1 μM, ATP Km
Experimental: as §1

[25] = target: BRK(h) (Homo sapiens, UniProt Q13882); assay: Kinase panel activity; assay type: biochemical; settings: 0.1 μM, ATP Km
Sequence of BRK(h) (Q13882 whole entry): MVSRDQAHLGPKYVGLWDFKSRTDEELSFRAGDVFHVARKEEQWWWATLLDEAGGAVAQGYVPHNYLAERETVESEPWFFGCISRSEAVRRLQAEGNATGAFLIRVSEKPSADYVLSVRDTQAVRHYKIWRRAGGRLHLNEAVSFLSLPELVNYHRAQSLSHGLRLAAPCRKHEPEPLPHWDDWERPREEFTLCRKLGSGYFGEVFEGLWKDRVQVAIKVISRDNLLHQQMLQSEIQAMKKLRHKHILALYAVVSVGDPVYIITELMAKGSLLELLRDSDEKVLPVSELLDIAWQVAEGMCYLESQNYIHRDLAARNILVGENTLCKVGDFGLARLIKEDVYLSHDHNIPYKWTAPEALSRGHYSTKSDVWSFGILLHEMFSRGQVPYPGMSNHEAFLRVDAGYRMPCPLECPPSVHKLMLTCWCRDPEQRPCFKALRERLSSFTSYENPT
Experimental: as §1

[26] = target: LKB1(h) (Homo sapiens, UniProt Q15831); assay: Kinase panel activity; assay type: biochemical; settings: 0.1 μM, ATP Km
Experimental: as §1

[27] = target: T8, Met(D1246H)(h) (Homo sapiens, UniProt P08581, D1228H); assay: Kinase panel activity; assay type: biochemical; settings: 0.1 μM, ATP Km
T8 construct: purchased Millipore (KinaseProfiler service)
Experimental: as §1

[28] = target: T9, TrkB(h) (Homo sapiens, UniProt Q16620); assay: Kinase panel activity; assay type: biochemical; settings: 0.1 μM, ATP Km
T9 construct: purchased Millipore (KinaseProfiler service)
T9 sequence (Q16620 32-822): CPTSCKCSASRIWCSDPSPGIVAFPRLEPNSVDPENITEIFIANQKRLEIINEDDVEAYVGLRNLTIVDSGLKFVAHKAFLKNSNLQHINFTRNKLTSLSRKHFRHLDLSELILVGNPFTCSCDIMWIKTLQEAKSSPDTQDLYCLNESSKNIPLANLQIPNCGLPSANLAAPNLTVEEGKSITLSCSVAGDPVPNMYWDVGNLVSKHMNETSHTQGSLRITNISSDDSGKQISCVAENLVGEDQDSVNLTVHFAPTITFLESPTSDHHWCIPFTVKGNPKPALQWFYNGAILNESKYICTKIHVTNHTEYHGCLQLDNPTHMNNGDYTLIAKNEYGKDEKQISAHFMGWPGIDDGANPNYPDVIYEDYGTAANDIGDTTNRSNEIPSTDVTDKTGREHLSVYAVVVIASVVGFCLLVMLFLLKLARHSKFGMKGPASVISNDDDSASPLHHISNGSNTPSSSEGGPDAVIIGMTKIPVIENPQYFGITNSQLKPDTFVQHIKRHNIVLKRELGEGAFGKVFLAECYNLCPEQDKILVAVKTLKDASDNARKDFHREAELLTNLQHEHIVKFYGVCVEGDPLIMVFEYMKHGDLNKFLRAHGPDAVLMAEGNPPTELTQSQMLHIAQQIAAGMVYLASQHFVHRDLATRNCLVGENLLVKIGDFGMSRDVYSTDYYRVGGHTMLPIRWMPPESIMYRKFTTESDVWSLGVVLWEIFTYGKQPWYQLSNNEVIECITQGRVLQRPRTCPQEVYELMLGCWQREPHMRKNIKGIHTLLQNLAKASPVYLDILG
Experimental: as §1

[29] = target: ULK3(h) (Homo sapiens, UniProt Q6PHR2); assay: Kinase panel activity; assay type: biochemical; settings: 0.1 μM, ATP Km
Experimental: as §1

[30] = target: T10, Src(1-530)(h) (Homo sapiens, UniProt P12931); assay: Kinase panel activity; assay type: biochemical; settings: 0.1 μM, ATP Km
T10 construct: Src(1-530)(h); purchased Millipore (KinaseProfiler service)
Experimental: as §1

[31] = target: ULK2(h) (Homo sapiens, UniProt Q8IYT8); assay: Kinase panel activity; assay type: biochemical; settings: 0.1 μM, ATP Km
Experimental: as §1

[32] = target: T11, SAPK4(h) (Homo sapiens, UniProt O15264); assay: Kinase panel activity; assay type: biochemical; settings: 0.1 μM, ATP Km
T11 construct: purchased Millipore (KinaseProfiler service)
Experimental: as §1

[33] = target: T12, EGFR(T790M,L858R)(h) (Homo sapiens, UniProt P00533, L858R/T790M); assay: Kinase panel activity; assay type: biochemical; settings: 0.1 μM, ATP Km
T12 construct: purchased Millipore (KinaseProfiler service)
Experimental: as §1

[34] = target: T13, EphA2(h) (Homo sapiens, UniProt P29317); assay: Kinase panel activity; assay type: biochemical; settings: 0.1 μM, ATP Km
T13 construct: purchased Millipore (KinaseProfiler service)
Experimental: as §1

Activity % [2]: 4% | Activity % [3]: 101% | Activity % [4]: 92% | Activity % [5]: 65% | Activity % [6]: 77% | Activity % [7]: 99% | Activity % [8]: 115% | Activity % [9]: 90% | Activity % [10]: 106% | Activity % [11]: 44% | Activity % [12]: 21% | Activity % [13]: 82% | Activity % [14]: −1% | Activity % [15]: 18% | Activity % [16]: −3% | Activity % [17]: 102% | Activity % [18]: −4% | Activity % [19]: 72% | Activity % [20]: 112% | Activity % [21]: 67% | Activity % [22]: 23% | Activity % [23]: 5% | Activity % [24]: 104% | Activity % [25]: 33% | Activity % [26]: 98% | Activity % [27]: 18% | Activity % [28]: 1% | Activity % [29]: 11% | Activity % [30]: −2% | Activity % [31]: 46% | Activity % [32]: 91% | Activity % [33]: 17% | Activity % [34]: −1%
SMILES: Cc1cc2c(F)c(Oc3nc(Nc4cc(C5CC5)[nH]n4)cc(N4CCN(C)CC4)n3)cc(F)c2[nH]1 [NTW-3475]
anti-tumor effect against CML [1]: strong anti-tumor effect

Source: patent US9458137B2, “Substituted indol-5-ol derivatives and their therapeutical applications” (NantBioScience, Inc., priority 2012, dated 2016)
